Experimental data taken from patent publication US6384188B1, “Lipopolysaccharide-binding and neutralizing peptides” (Dana-Farber Cancer Institute, Inc., priority 1993, dated 2002).
Bridge positions count the residues as written; N and C are the ends. Peptide text beside a SMILES is read from it. * marks the point of attachment. Biotin = O=C1N[C@H]2[C@H](CS[C@H]2CCCCC(=O)*)N1

Legend:
[1] = LPS binding as determined by ELISA (general description); design: species or system E. coli
Source text: (§1) In a still further preferred embodiment, the present invention provides for peptides which effectively bind to LPS and are constrained to adopt a circular conformation by an intramolecular bridge. In this context, the circular conformation can be brought about by any one of a number of intramolecular bridges. Preferably, the peptide may incorporate two cysteine residues between which a disulfide bond is formed by an oxidation reaction. Alternatively, the two cysteines may be linked through a homo-bifunctional cross-linking reagent, such as a bis-maleimide. Particularly preferred are the cyclic peptides comprising amino acids 31 to 52 and amino acids 38 to 45 of LALF, each stabilized by a disulfide bond formed between two cysteine residues, producing a cyclic conformation (FIG. 2). […] This defines a minimal LPS-binding domain to be the peptide spanning amino acids 38 to 45 of LALF. […] Thus, particularly preferred are also the peptides spanning amino acids 90 to 101 and amino acids 90 to 97 of LBP (FIG. 3). […] This defines a second minimal LPS binding domain to be the peptide spanning amino acids 90 to 97 of LBP. […] Particularly preferred are the peptides spanning amino acids 90 to 97 and amino acids 90 to 101 of BPI (FIG. 4). This defines a third minimal LPS-binding domain to be the peptide spanning amino acids 90 to 97 of BPI.

[2] = ELISA binding of biotinylated peptides to immobilized lipid A; conditions: biotinylated peptide 0.1-10 μg/ml on immobilized lipid A; FIG. 8, 9
Experimental: The lipid A-binding activities of the peptides are shown in an ELISA format as follows. An ELISA plate (NUNC, Polysorp 96U) is coated for 90 minutes at 37° C. with 100 μl lipid A in PBS (0.25-1 μg/ml). All further steps are done at room temperature. After washing and blocking (10 min.) with PBS/0.1% Tween, the solid phase is incubated for 1 hour with 100 μl of increasing amounts (0.1 μg/ml-10 μg/ml) of purified synthetic peptides (dissolved in PBST) labelled at the N-terminus with biotin. After washing with PBS/0.1% Tween, the bound peptides are incubated for 45 min. with 100 μl streptavidin conjugated to alkaline phosphatase (Boehringer Mannheim GmbH; 1:10000 diluted in PBS/0.1% Tween), followed again by washing with PBS/0.1% Tween and 100 mM Tris pH 9.5. p-Nitrophenylphosphate (2 mg/ml in 100 mM Tris pH 9.5) is used as a substrate for alkaline phosphatase. The ELISA is read at 405 nm.
To investigate the importance of the constrained conformation for high affinity peptide-lipid A binding, binding activity of cyclic and the corresponding linear peptides is compared.

[3] = Binding of fluorescein-labelled LPS to biotinylated peptides immobilized via streptavidin; design: species or system Salmonella enteriditis; conditions: peptide 1 or 10 μg/ml on streptavidin plate, FITC-LPS 0.5 μg/ml; FIG. 12
Experimental: To investigate the potential use of multimeric peptides for increasing the binding to LPS, individual peptides are coated on an ELISA plate to high surface concentrations. Immobilization is performed by first coating the plate with strepravidin and then binding the peptides via their N-terminal biotin groups. Thus, 100 μl streptavidin (Boehringer Mannheim GmbH; 10 μg/ml in PBS) is used for coating followed by washing, blocking (10 min.) with PBS/0.1% Tween and a 30 min. incubation with 100 μl of purified synthetic peptides (1 μg/ml or 10 μg/ml in PBST) labelled at the N-terminus with biotin. After washing with PBS/0.1% Tween the peptides are incubated for 1 hr With FITC-labelled LPS (SIGMA; Salmonella enteriditis; 0.5 μg/ml in PBS/0.1% Tween). After washing with PBS/0.1% Tween, the ELISA plate is incubated with 100 μl of an anti-FITC antibody conjugated to alkaline phosphatase (SIGMA; 1:2500 diluted in PBS/0.1% Tween) and washed with PBS/0.1% Tween and 100 mM Tris pH 9.5. p-Nitrophenyl-phosphate (2 mg/ml in 100 mM Tris pH 9.5) is used as a substrate for alkaline phosphatase. The ELISA is read at 405 nm. All steps are done at room temperature.

[4] = tested on: LALF binding to immobilized lipid A; assay: Competition of LALF:lipid A binding by peptides (ELISA)
Experimental: (§2) To investigate the specificity of peptides in binding lipid A and LPS, competition experiments with known endotoxin binding proteins such as LALF and LBP and the antibiotic polymyxin B are carried out. Thus an ELISA plate (NUNC, Polysorp 96U) is coated for 90 min. at 37° C. with 100 μl lipid A in PBS (0.25-0.3 μg/ml) or lipopolysaccharide in PBS (0.25-0.3 μg/ml). All further steps are done at room temperature. After washing and blocking (10 min.) with PBS/0.1% Tween, the solid phase is incubated for 1 hr with 100 μl or increasing amounts (0.01 μg/ml-100 μg/ml in PBS/0.1% Tween) of unlabelled or biotin-labelled peptides mixed with an endotoxin binding protein (LALF or LBP; 0.2 μg/ml in PBS/0.1% Tween). After washing with PBS/0.1% Tween, the ELISA plate is incubated for 45 min. with 100 μl of a rabbit antiserum against LALF or LBP, respectively. After washing with PBS/0.1% Tween the ELISA plate is incubated with 100 μl anti-rabbit antibody conjugated to alkaline phosphatase (SIGMA; 1:10000 diluted in PBS/0.1% Tween) and washed with PBS/0.1% Tween and 100 mM Tris pH 9.5. p-Nitrophenyl-phosphate (2 mg/ml in 100 mM Tris pH 9.5) is used as a substrate for alkaline phosphatase. The ELISA is read at 405 nm.

[5] = Chromogenic Limulus amebocyte lysate test; format: biochemical, E. coli; conditions: peptides 0.1-10 μg/ml preincubated with LPS 15 min at 37° C.; FIG. 19
Experimental: (§3) The Limulus amebocyte Lysate test (gelling assay; sensitivity 0.125 EU/ml) and the Chromogenic Limulus amebocyte Lysate test (sensitivity 0.06 EU/ml) are performed according to the manufacturer's instruction (Bio*Whittaker, Walkersville, Md.) using E. coli 055:B5 lipopolysaccharide. For neutralisation of LPS, peptides (0.1-10 μg/ml) and LPS are incubated for 15 min. at 37° C. and then added to the Limulus lysate. […] The chromogenic assay allows quantification of the lipopolysaccharide neutralizing capacity of the peptides.

[6] = tested on: LALF binding to immobilized lipid A; assay: Influence of serum on the competition of LALF:lipid A binding by peptide; conditions: 100 μg/ml peptide, 10% fetal calf serum; FIG. 18
Experimental: as §2, with “nm. […]” for “nm.”

[7] = tested on: biotin-labelled LBP-14 binding to immobilized lipid A; assay: Competition of LBP14:lipid A binding by peptides and proteins (ELISA); conditions: unlabelled competitor in increasing amounts, biotin-LBP-14 1 μg/ml; FIG. 16; very similar result with LALF-14
Experimental: An ELISA plate (NUNC, Polysorp 96U) is coated for 90 min. at 37° C. with 100 μl lipid A in PBS (0.2-0.3 μg/ml). All further steps are done at room temperature. After washing and blocking (10 min.) with PBS/0.1%. Tween, the solid phase is incubated for 1 hr with 100 μl of increasing amounts (0.01 μg/ml-10 μg/ml) of unlabelled peptides or proteins mixed with a biotin-labelled peptide (1 μg/ml in PBST/0.1% Tween). After washing with PBS/0.1% Tween, 100μl streptavidin conjugated to alkaline phosphatase (Boehringer Mannheim GmbH, 1:10000 diluted in PBS/0.1% Tween) is added to the wells. This incubation is followed by washing with PBS/0.1% Tween and 100 mM Tris pH 9.5. p-Nitrophenyl-phosphate (2 mg/ml in 100 mM Tris pH 9.5) is used as a substrate for alkaline phosphatase. The ELISA is read at 405 nm.
CD14 is used to compete the peptide-lipid A binding. The principle of such a binding assay is the same as for the LALF- or LBP-lipid A competition assays in which a constant amount of detectable peptide or protein is competed by an increasing amount of another peptide or protein. Instead of detecting LALF, bound biotin-labelled peptide is detected with streptavidin conjugated to alkaline phosphatase, and the labelled peptide concentration is kept constant while the unlabelled peptide or protein amount is increased. […] A very similar result is observed when LALF-14 is used instead of LBP-14.

[8] = LPS binding as shown by ELISA (general description); conditions: FIG. 2-7 peptides
Source text: as §1

[9] = Limulus amebocyte lysate test (gelling assay); format: biochemical, E. coli; conditions: peptides 0.1-10 μg/ml preincubated with LPS 15 min at 37° C.; FIG. 19
Experimental: as §3

[10] = tested on: LBP binding to immobilized lipid A; assay: Competition of LBP:lipid A binding by peptides (ELISA); conditions: 100 μg/ml peptide; FIG. 15
Experimental: as §2
The ability of the peptides to compete with LBP for binding to LPS is determined in the same way as in Example 5, except that LALF is replaced with LBP (see FIG. 15). […]

[11] = tested on: monocytes (LPS Re-LPS F515 induced TNF release); assay: Inhibition of LPS-mediated TNF release by monocytes; format: cell-based, human; conditions: peptide 10 μg/ml preincubated with LPS; TNF by ELISA; FIG. 20
Experimental: Monocytes are purified with a ficoll gradient (d=1.077) from whole blood by centrifugation for 20 min. at 2200 rpm at room temperature. Ficoll is removed by washing 3 times with PBS. Purified monocytes are counted and diluted to 2×10^6 cells/900 μl in medium (RPMI+) or medium with 0.1%-10% human serum. For TNF induction, 2×10^6 monocytes (in 900 μl medium or medium with serum) and 100 μl of LPS (Re-LPS F515; 0.1 ng/ml-10 ng/ml) or mixtures of LPS with peptides (10 μg/ml) (preincubated for 15 min. at 37° C.) are incubated in a 24 well plate (NUNC) for 2 to 5 hr. The supernatant is taken off and spun twice for 2 min. at 1500 rpm, once for 5 min. at 15000 rpm and stored at −20° C. for TNF determination. The induced TNF is assayed by ELISA according to the manufacturer's instruction (BioSource International, California) using a 50 μl sample of thawed supernatant.

[12] = peptide 0.01-100 μg/ml, LALF 0.2 μg/ml, FIG. 13, 14

CC(C)C[C@@H]1NC(=O)[C@H](CCCNC(=N)N)NC(=O)[C@H](CCCNC(=N)N)NC(=O)[C@H](Cc2ccccc2)NC(=O)[C@H]([C@@H](C)O)NC(=O)[C@@H](NC(=O)CCCC[C@@H]2SC[C@@H]3NC(=O)N[C@@H]32)CSSC[C@@H](C(=O)O)NC(=O)[C@H](CCCCN)NC(=O)[C@H](Cc2c[nH]c3ccccc23)NC(=O)[C@H](CCCCN)NC1=O [LALF-10] (Biotin-CTFRRLKWKC-OH; disulfide 1-10)
binding to E. coli EH 100 LPS as determined by ELISA [1]: Both bind lipid A and, additionally, two different types of LPS-molecules

CC[C@H](C)[C@@H]1NC(=O)[C@H](CCCNC(=N)N)NC(=O)[C@H](Cc2ccc(O)cc2)NC(=O)[C@H](Cc2c[nH]cn2)NC(=O)[C@@H](N)CSSC[C@@H](C(=O)O)NC(=O)[C@H](Cc2c[nH]c3ccccc23)NC(=O)[C@H](Cc2ccccc2)NC(=O)[C@H](CCCCN)NC(=O)CNC(=O)[C@H](CCCCN)NC(=O)[C@H](Cc2ccc(O)cc2)NC(=O)[C@H](CCCCN)NC(=O)[C@H](Cc2c[nH]c3ccccc23)NC(=O)[C@H](CCCCN)NC(=O)[C@H](CC(C)C)NC(=O)[C@H](CCCNC(=N)N)NC(=O)[C@H](CCCNC(=N)N)NC(=O)[C@H](Cc2ccccc2)NC(=O)[C@H]([C@@H](C)O)NC(=O)[C@@H]2CCCN2C(=O)[C@H](CCCCN)NC1=O [amino acids 31 to 52 of LALF] (H-CHYRIKPTFRRLKWKYKGKFWC-OH; disulfide 1-22; N-terminus and C-terminus assumed)
binding to E. coli EH 100 LPS as determined by ELISA [1]: Both bind lipid A and, additionally, two different types of LPS-molecules

Biotin-Z-C-K-W-K-I-R-K-F-S-C-N (Z=β-alanine) [MS-22]
lipid A-binding activity (ELISA) [2]: binds lipid A clearly above background level and with a similar activity to LBP-10-1, but weaker than MS-21

Biotin-Z-K-C-F-T-R-R-A-K-W-R-C (Z=β-alanine) [MS-21]
lipid A-binding activity (ELISA) [2]: binds lipid A weaker than LALF-14 and LBP-14, but slightly better than BPI-14 | binding of FITC-labelled LPS to immobilized peptide [3]: highest binding affinity to LPS | competition with LALF for lipid A binding ([4]; at 100 μg/ml peptide, FIG. 14): ~80%

I-K-T-K-K-F-L-K-K-T (IKTKKFLKKT) [PolP-1]
inhibition of the chromogenic Limulus amebocyte lysate assay [5]: up to 25% | competition with LALF for lipid A binding in the presence of 10% serum [6]: only inhibit slightly above background | competition of LBP-14 binding to lipid A [7]: only slightly above the background determined by lysozyme as competitor | competition with LALF for lipid A binding [4, 12]: hardly competes with LALF for lipid A binding

amino acids 90 to 97 of BPI: peptide spanning amino acids 90 to 97 of BPI, cyclic by disulfide bond between two cysteines
binding to LPS as shown by ELISA [8]: able to bind LPS

lysozyme
competition of LBP-14 binding to lipid A [7]: background determined by lysozyme as competitor | competition with LALF for lipid A binding ([4]; at 100 μg/ml peptide, FIG. 14): 10% | competition with LALF for lipid A binding [4, 12]: not able to compete with LALF

polymyxin B
competition with LALF for lipid A binding in the presence of 10% serum [6]: also inhibiting in the presence of 10% serum | inhibition of LPS-mediated gelling of Limulus amebocyte lysate [9]: inhibit the assays | competition with LBP for lipid A binding [10]: not able to compete with LBP for binding to lipid A | competition of LBP-14 binding to lipid A [7]: only weak competition activity at the highest concentration used | competition with LALF for lipid A binding [4, 12]: able to displace LALF almost completely from immobilized lipid A | inhibition of TNF release [11]: 95%
